Here are results for ten molecules from publication PMC9062088 (RSC Advances, 2019).

The target in one experiment is T1, human TyrRS (Homo sapiens, UniProt P54577).
T1 sequence (P54577 1-341): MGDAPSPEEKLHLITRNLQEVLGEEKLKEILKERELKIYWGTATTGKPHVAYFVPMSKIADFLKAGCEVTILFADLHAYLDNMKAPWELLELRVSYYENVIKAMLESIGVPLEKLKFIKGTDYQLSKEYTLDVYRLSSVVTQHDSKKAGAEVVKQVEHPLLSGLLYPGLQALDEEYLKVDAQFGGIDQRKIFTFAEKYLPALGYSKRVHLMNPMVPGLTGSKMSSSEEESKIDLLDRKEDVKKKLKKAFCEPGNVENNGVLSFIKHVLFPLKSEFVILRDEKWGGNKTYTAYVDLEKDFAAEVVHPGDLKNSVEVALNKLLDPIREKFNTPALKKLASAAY
Nature of the experiment: ATP–pyrophosphate exchange assay. Format: biochemical. Conditions: for inhibitory effect on human TyrRS (SAR statement in words): 100 μM screening data of Tables 1 and 2; for remaining activity at 100 µM: read-out: Enzyme activity@100 μM (%).

Experiment [1] concerns HeLa cells. Nature of the experiment: Cellular localization of TyrRS. The format is cell-based, human. The note with it: HeLa cells, 1.1, 3.3, 10 or 30 μM, 8 h, immunoblot.
Experiment [2] deals with HeLa cells. Kind of experiment: Detection of DNA damage in cells. The format is cell-based, human. Conditions: pre-treated 24 h (0.37-30 μM), then 30 μM cisplatin 24 h, immunoblot. Background: Immunoblotting shows a protein as a band on a membrane.

SMILES strings stand for the structures.

`CC(C)(C)c1ccc(Sc2c(O)c(Sc3ccc(C(C)(C)C)cc3)c3oc(-c4ccccc4)cc(=O)c3c2O)cc1` [Compound 9]: on human TyrRS, the “inhibitory effect on human TyrRS (SAR statement in words)” value is “substantially diminished activity” and the remaining activity at 100 µM amounted to 85.3%.
For `COc1ccccc1Sc1c(O)c(Sc2ccccc2OC)c2oc(-c3ccccc3)cc(=O)c2c1O` [Compound 3], in that order: “substantially diminished activity” and 88.9%.
As to `O=c1cc(-c2ccccc2)oc2c(Sc3ccccc3O)c(O)cc(O)c12` [Compound 29], the remaining activity at 100 µM at human TyrRS stood at 81.9%.
Regarding `COc1cc(O)c(Sc2cccc(F)c2)c2oc(-c3ccccc3)cc(=O)c12` [Compound 15], on human TyrRS, the remaining activity at 100 µM was determined as 68.5%.
On to `COc1cc(O)c(Sc2ccc(F)cc2)c2oc(-c3ccccc3)cc(=O)c12` [Compound 16], for which, at human TyrRS, the remaining activity at 100 µM turned out to be 76.4%.
The same measure, in the same setting: in the case of `O=c1cc(-c2ccccc2)oc2c(Sc3cccc(O)c3)c(O)cc(O)c12` [Compound 26] it was 93.2%.
In the case of `Cc1ccccc1Sc1c(O)c(Sc2ccccc2C)c2oc(-c3ccccc3)cc(=O)c2c1O` [Compound 8], at human TyrRS, the “inhibitory effect on human TyrRS (SAR statement in words)” value is reported as “substantially diminished activity” and the remaining activity at 100 µM is 75.9%.
Turning to `O=c1cc(-c2ccccc2)oc2c(Sc3cccc(O)c3)c(O)c(Sc3cccc(O)c3)c(O)c12` [Compound 11, 5,7-dihydroxy-6,8-bis((3-hydroxyphenyl)thio)-2-phenyl-4H-chromen-4-one], in the experiment with HeLa cells [1], the TyrRS nuclear localization result was “dramatically promoted the nuclear localization of TyrRS”. Further, the “level of γ-H2A.X (DNA damage)” value with HeLa cells [2] is listed as “dramatically decreased”.
With `COc1cc(O)c(Sc2ccccc2F)c2oc(-c3ccccc3)cc(=O)c12` [Compound 18], the remaining activity at 100 µM on human TyrRS is 73.8%.
`COc1ccc(Sc2c(O)cc(OC)c3c(=O)cc(-c4ccccc4)oc23)cc1` [Compound 21]: the remaining activity at 100 µM on human TyrRS came to 73.9%.
